Here are results for nine compounds from patent publication US12662479B2 (Foghorn Therapeutics Inc., priority 2020, dated 2026).

One experiment has as its target T1, HiBit-BRM fusion protein (Homo sapiens, UniProt P51531).
T1 construct: expressed in transfected cells
Nature of the experiment: HiBiT-BRM cell-based degradation assay (Nano-Glo HiBiT Lytic Detection, 24 h). Particulars: HeLa cells expressing HiBiT-BRM; for DC50: read-out: BRM HiBit Degradation IC50; for BRM HiBit Degradation Maximum measured: top dose 30 μM. The method, boiled down:
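Luminescence from reconstituted NanoBiT luciferase in lysed HeLa HiBiT-BRM cells served as the measure of remaining BRM after 24 h treatment. Compounds were tested from 30 μM final downward in 3-fold steps. DMSO and 2 μM of a standard BRM/BRG1 degrader defined the scale limits.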
Background: HiBiT is a short tag that completes a luciferase, so light tracks the accessible tagged protein.

The target in experiment [1] is T2, HiBit-BRG1 fusion protein (Homo sapiens, UniProt P51532).
T2 construct: expressed in transfected cells
Nature of the experiment: HiBiT-BRG1 cell-based degradation assay (Nano-Glo HiBiT Lytic Detection, 24 h). The note with it: HeLa cells expressing HiBit-BRG1 and LgBit; for DC50: read-out: BRG1 HiBit Degradation IC50; for Dmax: HeLa, top dose 30 μM, read-out: BRG1 HiBit Degradation Maximum measured. The method, boiled down: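 Stable HeLa line expressing HiBiT-BRG1 and LgBiT, seeded at 5000 cells/well; luminescence read after lytic Nano-Glo HiBiT reagent and 10 min shaking at RT. % degradation normalised between DMSO (high control) and 2 μM reference BRM/BRG1 degrader (low control).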

T2 sequence (P51532 whole entry, the tested form may be a part): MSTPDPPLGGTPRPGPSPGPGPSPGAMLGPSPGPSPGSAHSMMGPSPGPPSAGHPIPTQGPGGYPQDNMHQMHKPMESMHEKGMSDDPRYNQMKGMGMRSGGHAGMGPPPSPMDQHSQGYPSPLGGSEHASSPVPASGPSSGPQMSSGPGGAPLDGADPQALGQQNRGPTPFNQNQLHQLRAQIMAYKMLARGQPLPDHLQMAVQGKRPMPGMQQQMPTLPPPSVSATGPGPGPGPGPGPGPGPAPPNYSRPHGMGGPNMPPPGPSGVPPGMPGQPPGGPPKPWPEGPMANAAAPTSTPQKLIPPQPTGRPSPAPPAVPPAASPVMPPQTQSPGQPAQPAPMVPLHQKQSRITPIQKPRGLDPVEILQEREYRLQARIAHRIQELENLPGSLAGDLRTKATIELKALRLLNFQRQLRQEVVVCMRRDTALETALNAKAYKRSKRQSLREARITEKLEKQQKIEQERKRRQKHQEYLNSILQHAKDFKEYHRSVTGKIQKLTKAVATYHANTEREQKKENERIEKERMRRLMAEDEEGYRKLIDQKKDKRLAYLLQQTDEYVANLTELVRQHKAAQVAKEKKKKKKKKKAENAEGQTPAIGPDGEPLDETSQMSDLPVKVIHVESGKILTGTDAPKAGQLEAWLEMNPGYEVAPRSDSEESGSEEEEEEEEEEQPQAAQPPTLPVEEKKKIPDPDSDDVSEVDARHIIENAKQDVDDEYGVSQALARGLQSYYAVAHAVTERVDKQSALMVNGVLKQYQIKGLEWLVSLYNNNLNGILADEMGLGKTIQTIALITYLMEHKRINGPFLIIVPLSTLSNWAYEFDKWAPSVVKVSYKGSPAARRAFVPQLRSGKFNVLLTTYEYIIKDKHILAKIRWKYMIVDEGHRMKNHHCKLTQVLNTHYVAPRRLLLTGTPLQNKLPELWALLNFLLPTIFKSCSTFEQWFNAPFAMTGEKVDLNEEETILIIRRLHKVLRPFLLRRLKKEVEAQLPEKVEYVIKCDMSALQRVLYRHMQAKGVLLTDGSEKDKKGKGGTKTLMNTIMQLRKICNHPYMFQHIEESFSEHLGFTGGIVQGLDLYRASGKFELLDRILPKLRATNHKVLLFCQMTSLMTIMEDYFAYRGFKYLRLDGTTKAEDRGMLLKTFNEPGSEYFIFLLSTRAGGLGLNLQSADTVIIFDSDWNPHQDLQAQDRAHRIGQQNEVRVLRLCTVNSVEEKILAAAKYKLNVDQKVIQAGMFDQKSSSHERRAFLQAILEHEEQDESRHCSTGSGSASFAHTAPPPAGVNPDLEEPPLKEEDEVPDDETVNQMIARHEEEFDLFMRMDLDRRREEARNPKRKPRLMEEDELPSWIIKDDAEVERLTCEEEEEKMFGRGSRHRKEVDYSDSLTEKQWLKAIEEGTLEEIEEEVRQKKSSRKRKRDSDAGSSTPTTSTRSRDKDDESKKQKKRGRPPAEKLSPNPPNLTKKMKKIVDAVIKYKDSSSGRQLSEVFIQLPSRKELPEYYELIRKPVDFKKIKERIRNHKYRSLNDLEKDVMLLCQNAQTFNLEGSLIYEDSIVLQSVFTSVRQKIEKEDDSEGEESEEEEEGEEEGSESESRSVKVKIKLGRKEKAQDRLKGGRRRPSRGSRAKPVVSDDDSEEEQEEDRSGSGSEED
T1 sequence (P51531 whole entry, the tested form may be a part): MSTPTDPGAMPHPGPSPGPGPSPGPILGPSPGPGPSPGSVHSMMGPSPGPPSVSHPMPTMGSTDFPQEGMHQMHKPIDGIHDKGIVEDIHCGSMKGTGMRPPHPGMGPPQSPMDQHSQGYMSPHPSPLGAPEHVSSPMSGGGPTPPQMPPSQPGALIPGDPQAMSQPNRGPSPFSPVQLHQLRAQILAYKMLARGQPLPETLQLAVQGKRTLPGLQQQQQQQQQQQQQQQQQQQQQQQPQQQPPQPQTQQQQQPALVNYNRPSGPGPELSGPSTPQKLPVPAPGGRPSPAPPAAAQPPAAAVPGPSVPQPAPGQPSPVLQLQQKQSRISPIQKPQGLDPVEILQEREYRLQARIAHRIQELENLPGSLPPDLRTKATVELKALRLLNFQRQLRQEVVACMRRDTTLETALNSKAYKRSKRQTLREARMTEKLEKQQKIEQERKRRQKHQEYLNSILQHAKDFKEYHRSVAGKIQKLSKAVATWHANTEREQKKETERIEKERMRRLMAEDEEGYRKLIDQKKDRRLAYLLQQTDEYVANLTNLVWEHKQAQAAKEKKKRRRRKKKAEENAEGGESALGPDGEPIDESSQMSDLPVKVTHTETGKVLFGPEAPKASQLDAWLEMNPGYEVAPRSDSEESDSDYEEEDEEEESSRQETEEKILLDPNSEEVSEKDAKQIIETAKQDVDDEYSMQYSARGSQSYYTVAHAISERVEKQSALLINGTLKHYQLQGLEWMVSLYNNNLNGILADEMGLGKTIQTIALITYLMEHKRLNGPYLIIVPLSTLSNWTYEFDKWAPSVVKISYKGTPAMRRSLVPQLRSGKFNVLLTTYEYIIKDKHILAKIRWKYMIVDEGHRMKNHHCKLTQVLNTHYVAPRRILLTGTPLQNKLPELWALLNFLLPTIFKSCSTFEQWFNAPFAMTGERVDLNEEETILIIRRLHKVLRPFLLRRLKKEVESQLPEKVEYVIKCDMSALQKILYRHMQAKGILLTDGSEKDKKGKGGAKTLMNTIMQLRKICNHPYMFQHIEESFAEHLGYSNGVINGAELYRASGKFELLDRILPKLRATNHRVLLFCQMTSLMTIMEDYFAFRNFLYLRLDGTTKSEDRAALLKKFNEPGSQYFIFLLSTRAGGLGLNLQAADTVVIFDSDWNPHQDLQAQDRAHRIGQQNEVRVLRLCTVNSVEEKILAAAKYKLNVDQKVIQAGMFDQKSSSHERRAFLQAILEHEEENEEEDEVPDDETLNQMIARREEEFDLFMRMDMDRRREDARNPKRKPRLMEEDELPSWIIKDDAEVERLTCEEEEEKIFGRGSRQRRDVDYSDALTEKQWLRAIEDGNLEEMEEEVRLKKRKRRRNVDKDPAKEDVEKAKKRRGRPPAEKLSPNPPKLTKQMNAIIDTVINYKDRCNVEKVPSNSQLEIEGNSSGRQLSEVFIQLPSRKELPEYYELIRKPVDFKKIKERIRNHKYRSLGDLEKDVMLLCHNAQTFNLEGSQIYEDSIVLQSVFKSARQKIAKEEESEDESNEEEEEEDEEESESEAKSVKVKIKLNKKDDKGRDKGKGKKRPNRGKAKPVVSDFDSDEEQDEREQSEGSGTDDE

As to `Cc1c(C(=O)NCC(=O)Nc2nc(-c3cccc(-c4ccnc(N(C)CC(=O)N5CCC(C6CCN(C(=O)COc7cccc8c7C(=O)N(C7CCC(=O)NC7=O)C8=O)CC6)CC5)c4)c3)cs2)cn(S(=O)(=O)C(C)C)c1C` (stereo not drawn) [Compound 116, N-(2-((4-(3-(2-((2-(1′-(2-((2-(2,6-dioxopiperidin-3-yl)-1,3-dioxoisoindolin-4-yl)oxy)acetyl)-[4,4′-bipiperidin]-1-yl)-2-oxoethyl)(methyl)amino)pyridin-4-yl)phenyl)thiazol-2-yl)amino)-2-oxoethyl)-1-(isopropylsulfonyl)-4,5-dimethyl-1H-pyrrole-3-carboxamide], at HiBit-BRM fusion protein, the DC50 was greater than 10 µM and the “BRM HiBit Degradation Maximum measured” value is reported as “C (‘C’ = Maximum degradation <50%)”. In addition, in experiment [1], the DC50 was greater than 10 µM and the Dmax is less than 50%.

For the compound `Cc1ncsc1-c1ccc(CNC(=O)[C@@H]2C[C@@H](O)CN2C(=O)[C@@H](NC(=O)CCCCCCCCCCCCC(=O)NCc2cccc(-c3cccc(-c4csc(NC(=O)CNC(=O)c5ccn(S(C)(=O)=O)c5)n4)c3)c2)C(C)(C)C)cc1` [Compound 118, N1-((S)-1-((2S,4R)-4-hydroxy-2-((4-(4-methylthiazol-5-yl)benzyl)carbamoyl)pyrrolidin-1-yl)-3,3-dimethyl-1-oxobutan-2-yl)-N14-((3′-(2-(2-(1-(methylsulfonyl)-1H-pyrrole-3-carboxamido)acetamido)thiazol-4-yl)-[1,1′-biphenyl]-3-yl)methyl)tetradecanediamide], at HiBit-BRM fusion protein, the DC50 fell in the range of 0.1 to 1 µM; the “BRM HiBit Degradation Maximum measured” value is “B (‘B’ = Maximum degradation ≥50% and ≤75%)”. Besides, in experiment [1], the DC50 is 0.1 to 1 µM and the Dmax was 50 to 75%.

For `Cc1ncsc1-c1ccc(CNC(=O)[C@@H]2C[C@@H](O)CN2C(=O)[C@@H](NC(=O)CCCCCCCCCCC(=O)NCc2cccc(-c3cccc(-c4csc(NC(=O)CNC(=O)c5ccn(S(C)(=O)=O)c5)n4)c3)c2)C(C)(C)C)cc1` [Compound 119, N1-((S)-1-((2S,4R)-4-hydroxy-2-((4-(4-methylthiazol-5-yl)benzyl)carbamoyl)pyrrolidin-1-yl)-3,3-dimethyl-1-oxobutan-2-yl)-N12-((3′-(2-(2-(1-(methylsulfonyl)-1H-pyrrole-3-carboxamido)acetamido)thiazol-4-yl)-[1,1′-biphenyl]-3-yl)methyl)dodecanediamide], at HiBit-BRM fusion protein, the DC50 was in the range of 0.1 to 1 µM and the “BRM HiBit Degradation Maximum measured” value is recorded as “A (‘A’ = Maximum degradation >75%)”. In experiment [1], the DC50 was 0.1 to 1 µM and the Dmax is greater than 75%.

Consider `Cc1ncsc1-c1ccc(CNC(=O)[C@@H]2C[C@@H](O)CN2C(=O)[C@@H](NC(=O)CCCCCCCCCCCCCCC(=O)NCc2cccc(-c3cccc(-c4csc(NC(=O)CNC(=O)c5ccn(S(C)(=O)=O)c5)n4)c3)c2)C(C)(C)C)cc1` [Compound 120, N1-((S)-1-((2S,4R)-4-hydroxy-2-((4-(4-methylthiazol-5-yl)benzyl)carbamoyl)pyrrolidin-1-yl)-3,3-dimethyl-1-oxobutan-2-yl)-N16-((3′-(2-(2-(1-(methylsulfonyl)-1H-pyrrole-3-carboxamido)acetamido)thiazol-4-yl)-[1,1′-biphenyl]-3-yl)methyl)hexadecanediamide], for which, on HiBit-BRM fusion protein, the DC50 was greater than 10 µM and the “BRM HiBit Degradation Maximum measured” value is recorded as “C (‘C’ = Maximum degradation <50%)”. For the same compound, in experiment [1], the DC50 was greater than 10 µM and the Dmax was less than 50%.

In the case of `Cc1ncsc1-c1ccc(CNC(=O)[C@@H]2C[C@@H](O)CN2C(=O)[C@@H](NC(=O)COCCOCCOCCOCC(=O)NCc2cccc(-c3cccc(-c4csc(NC(=O)CNC(=O)c5ccn(S(C)(=O)=O)c5)n4)c3)c2)C(C)(C)C)cc1` [Compound 121, N1-((S)-1-((2S,4R)-4-hydroxy-2-((4-(4-methylthiazol-5-yl)benzyl)carbamoyl)pyrrolidin-1-yl)-3,3-dimethyl-1-oxobutan-2-yl)-N14-((3′-(2-(2-(1-(methylsulfonyl)-1H-pyrrole-3-carboxamido)acetamido)thiazol-4-yl)-[1,1′-biphenyl]-3-yl)methyl)-3,6,9,12-tetraoxatetradecane-1,14-diamide], at HiBit-BRM fusion protein, the DC50 was in the range of 1 to 10 µM; the “BRM HiBit Degradation Maximum measured” value was “B (‘B’ = Maximum degradation ≥50% and ≤75%)”. In experiment [1], the DC50 lay in the range of 1 to 10 µM and the Dmax fell in the range of 50 to 75%.

With `Cc1cc(C(=O)NCC(=O)Nc2nc(-c3cccc(-c4ccnc(N(C)CC(=O)NCCOCCOCCNc5cccc6c5C(=O)N(C5CCC(=O)NC5=O)C6=O)c4)c3)cs2)cn1S(C)(=O)=O` (stereo not drawn) [Compound 122, N-(2-((4-(3-(2-((2-((2-(2-(2-((2-(2,6-dioxopiperidin-3-yl)-1,3-dioxoisoindolin-4-yl)amino)ethoxy)ethoxy)ethyl)amino)-2-oxoethyl)(methyl)amino)pyridin-4-yl)phenyl)thiazol-2-yl)amino)-2-oxoethyl)-5-methyl-1-(methylsulfonyl)-1H-pyrrole-3-carboxamide], at HiBit-BRM fusion protein, the DC50 is greater than 10 µM and the “BRM HiBit Degradation Maximum measured” value is “C (‘C’ = Maximum degradation <50%)”. In addition, in experiment [1], the DC50 is greater than 10 µM and the Dmax is less than 50%.

Regarding `Cc1c(C(=O)NCC(=O)Nc2nc(-c3cccc(-c4ccnc(N(C)CC(=O)N5CCC(C6CCN(C(=O)COc7cccc8c7C(=O)N(C7CCC(=O)NC7=O)C8=O)CC6)CC5)c4)c3)cs2)cn(S(C)(=O)=O)c1C` (stereo not drawn) [Compound 123, N-[2-[[4-[3-[2-[[2-[4-[1-[2-[2-(2,6-dioxo-3-piperidyl)-1,3-dioxo-isoindolin-4-yl]oxyacetyl]-4-piperidyl]-1-piperidyl]-2-oxo-ethyl]-methyl-amino]-4-pyridyl]phenyl]thiazol-2-yl]amino]-2-oxo-ethyl]-4,5-dimethyl-1-methylsulfonyl-pyrrole-3-carboxamide], on HiBit-BRM fusion protein, the DC50 was greater than 10 µM and the “BRM HiBit Degradation Maximum measured” value is “C (‘C’ = Maximum degradation <50%)”. Moreover, in experiment [1], the DC50 was greater than 10 µM and the Dmax was less than 50%.

Consider `Cc1ncsc1-c1ccc(CNC(=O)[C@@H]2C[C@@H](O)CN2C(=O)[C@@H](NC(=O)CCCCCCCCCCCCCCCC(=O)NCc2cccc(-c3cccc(-c4csc(NC(=O)CNC(=O)c5ccn(S(C)(=O)=O)c5)n4)c3)c2)C(C)(C)C)cc1` [Compound 124, N1-((S)-1-((2S,4R)-4-hydroxy-2-((4-(4-methylthiazol-5-yl)benzyl)carbamoyl)pyrrolidin-1-yl)-3,3-dimethyl-1-oxobutan-2-yl)-N17-((3′-(2-(2-(1-(methylsulfonyl)-1H-pyrrole-3-carboxamido)acetamido)thiazol-4-yl)-[1,1′-biphenyl]-3-yl)methyl)heptadecanediamide], for which, at HiBit-BRM fusion protein, the DC50 was greater than 10 µM and the “BRM HiBit Degradation Maximum measured” value is on record as “C (‘C’ = Maximum degradation <50%)”. Further, in experiment [1], the DC50 is greater than 10 µM and the Dmax was less than 50%.

On to `Cc1cc(C(=O)NCC(=O)Nc2nc(-c3cccc(-c4ccnc(N(C)CC(=O)NCCCCCNc5cccc6c5C(=O)N(C5CCC(=O)NC5=O)C6=O)c4)c3)cs2)cn1S(C)(=O)=O` (stereo not drawn) [Compound 125, N-(2-((4-(3-(2-((2-((5-((2-(2,6-dioxopiperidin-3-yl)-1,3-dioxoisoindolin-4-yl)amino)pentyl)amino)-2-oxoethyl)(methyl)amino)pyridin-4-yl)phenyl)thiazol-2-yl)amino)-2-oxoethyl)-5-methyl-1-(methylsulfonyl)-1H-pyrrole-3-carboxamide], for which, on HiBit-BRM fusion protein, the DC50 is greater than 10 µM and the “BRM HiBit Degradation Maximum measured” value is reported as “C (‘C’ = Maximum degradation <50%)”. For the same compound, in experiment [1], the DC50 is greater than 10 µM and the Dmax is less than 50%.
